According to ChEMBL document CHEMBL2346657, “Synthesis of novel 2-amino-4-(5'-substituted 2'-phenyl-1H-indol-3'-yl)-6-aryl-4H-pyran-3-carbonitrile derivatives as antimicrobial and antioxidant agents” (2013):
Calls of active or inactive are those of the source. No rule for the calls is given here.

Key:
Assay type in all cases: functional
Staphylococcus aureus [1] = assay: Antimicrobial activity against Staphylococcus aureus ATCC 29513 at 750 ug/ml after 24 hrs by cup plate method; conditions: ATCC 29513, 24 h, read-out: IZ
Aspergillus niger [2] = assay: Antimicrobial activity against Aspergillus niger MTCC 281 at 750 ug/ml after 72 hrs by cup plate method; conditions: MTCC 281, 72 h, read-out: IZ
Aspergillus oryzae [3] = assay: Antimicrobial activity against Aspergillus oryzae MTCC 3567 at 1000 ug/ml after 72 hrs by cup plate method; conditions: MTCC 3567, 72 h, read-out: IZ
Aspergillus oryzae [4] = assay: Antimicrobial activity against Aspergillus oryzae MTCC 3567 at 750 ug/ml after 72 hrs by cup plate method; conditions: MTCC 3567, 72 h, read-out: IZ
Staphylococcus aureus [5] = assay: Antimicrobial activity against Staphylococcus aureus ATCC 29513 at 1000 ug/ml after 24 hrs by cup plate method; conditions: ATCC 29513, 24 h, read-out: IZ
Aspergillus terreus [6] = assay: Antimicrobial activity against Aspergillus terreus MTCC 1782 at 750 ug/ml after 72 hrs by cup plate method; conditions: MTCC 1782, 72 h, read-out: IZ
[7] = Antioxidant activity assessed as metal chelating activity by measuring inhibition of ferrozine-Fe2+ complex formation at 25 to 100 ug/ml
Escherichia coli [8] = assay: Antimicrobial activity against Escherichia coli MTCC 723 at 750 ug/ml after 24 hrs by cup plate method; conditions: MTCC 723, 24 h, read-out: IZ
Pseudomonas aeruginosa [9] = assay: Antimicrobial activity against Pseudomonas aeruginosa MTCC 1688 at 500 ug/ml after 24 hrs by cup plate method; conditions: MTCC 1688, 24 h, read-out: IZ
Klebsiella pneumoniae [10] = assay: Antimicrobial activity against Klebsiella pneumoniae NCTC 13368 at 1000 ug/ml after 24 hrs by cup plate method; conditions: NCTC 13368, 24 h, read-out: IZ
Pseudomonas aeruginosa [11] = assay: Antimicrobial activity against Pseudomonas aeruginosa MTCC 1688 at 1000 ug/ml after 24 hrs by cup plate method; conditions: MTCC 1688, 24 h, read-out: IZ
Staphylococcus aureus [12] = assay: Antimicrobial activity against Staphylococcus aureus ATCC 29513 at 500 ug/ml after 24 hrs by cup plate method; conditions: ATCC 29513, 24 h, read-out: IZ
Aspergillus flavus [13] = assay: Antimicrobial activity against Aspergillus flavus MTCC 1973 at 750 ug/ml after 72 hrs by cup plate method; conditions: MTCC 1973, 72 h, read-out: IZ
Aspergillus terreus [14] = assay: Antimicrobial activity against Aspergillus terreus MTCC 1782 at 1000 ug/ml after 72 hrs by cup plate method; conditions: MTCC 1782, 72 h, read-out: IZ
Aspergillus niger [15] = assay: Antimicrobial activity against Aspergillus niger MTCC 281 at 1000 ug/ml after 72 hrs by cup plate method; conditions: MTCC 281, 72 h, read-out: IZ
Klebsiella pneumoniae [16] = assay: Antimicrobial activity against Klebsiella pneumoniae NCTC 13368 at 500 ug/ml after 24 hrs by cup plate method; conditions: NCTC 13368, 24 h, read-out: IZ
Pseudomonas aeruginosa [17] = assay: Antimicrobial activity against Pseudomonas aeruginosa MTCC 1688 at 750 ug/ml after 24 hrs by cup plate method; conditions: MTCC 1688, 24 h, read-out: IZ
Aspergillus flavus [18] = assay: Antimicrobial activity against Aspergillus flavus MTCC 1973 at 1000 ug/ml after 72 hrs by cup plate method; conditions: MTCC 1973, 72 h, read-out: IZ
Escherichia coli [19] = assay: Antimicrobial activity against Escherichia coli MTCC 723 at 500 ug/ml after 24 hrs by cup plate method; conditions: MTCC 723, 24 h, read-out: IZ
Aspergillus oryzae [20] = assay: Antimicrobial activity against Aspergillus oryzae MTCC 3567 at 500 ug/ml after 72 hrs by cup plate method; conditions: MTCC 3567, 72 h, read-out: IZ
Aspergillus terreus [21] = assay: Antimicrobial activity against Aspergillus terreus MTCC 1782 at 500 ug/ml after 72 hrs by cup plate method; conditions: MTCC 1782, 72 h, read-out: IZ
Klebsiella pneumoniae [22] = assay: Antimicrobial activity against Klebsiella pneumoniae NCTC 13368 at 750 ug/ml after 24 hrs by cup plate method; conditions: NCTC 13368, 24 h, read-out: IZ
Escherichia coli [23] = assay: Antimicrobial activity against Escherichia coli MTCC 723 at 1000 ug/ml after 24 hrs by cup plate method; conditions: MTCC 723, 24 h, read-out: IZ
Aspergillus niger [24] = assay: Antimicrobial activity against Aspergillus niger MTCC 281 at 500 ug/ml after 72 hrs by cup plate method; conditions: MTCC 281, 72 h, read-out: IZ
Aspergillus flavus [25] = assay: Antimicrobial activity against Aspergillus flavus MTCC 1973 at 500 ug/ml after 72 hrs by cup plate method; conditions: MTCC 1973, 72 h, read-out: IZ

Row | Compound | zone of inhibition at 750 µg/mL (Staphylococcus aureus [1]) [mm] | zone of inhibition at 750 µg/mL (Aspergillus niger [2]) [mm] | zone of inhibition at 1000 µg/mL (Aspergillus oryzae [3]) [mm] | zone of inhibition at 750 µg/mL (Aspergillus oryzae [4]) [mm] | zone of inhibition at 1000 µg/mL (Staphylococcus aureus [5]) [mm] | zone of inhibition at 750 µg/mL (Aspergillus terreus [6]) [mm] | Activity [7] | zone of inhibition at 750 µg/mL (Escherichia coli [8]) [mm] | zone of inhibition at 500 µg/mL (Pseudomonas aeruginosa [9]) [mm] | zone of inhibition at 1000 µg/mL (Klebsiella pneumoniae [10]) [mm] | zone of inhibition at 1000 µg/mL (Pseudomonas aeruginosa [11]) [mm] | zone of inhibition at 500 µg/mL (Staphylococcus aureus [12]) [mm] | zone of inhibition at 750 µg/mL (Aspergillus flavus [13]) [mm] | zone of inhibition at 1000 µg/mL (Aspergillus terreus [14]) [mm] | zone of inhibition at 1000 µg/mL (Aspergillus niger [15]) [mm] | zone of inhibition at 500 µg/mL (Klebsiella pneumoniae [16]) [mm] | zone of inhibition at 750 µg/mL (Pseudomonas aeruginosa [17]) [mm] | zone of inhibition at 1000 µg/mL (Aspergillus flavus [18]) [mm] | zone of inhibition at 500 µg/mL (Escherichia coli [19]) [mm] | zone of inhibition at 500 µg/mL (Aspergillus oryzae [20]) [mm] | other results
1 | O=c1[nH]cnc2c1C(c1c(-c3ccccc3)[nH]c3ccccc13)C=C(c1ccc(Cl)cc1)O2 (stereo not given) | 5 | 8 | 10 | 10 | 5 | 6 | Active | 9 | 10 | 10 | 10 | 5 | 9 | 5 | 8 | 9 | 10 | 8 | 9 | 10 | zone of inhibition at 500 µg/mL (Aspergillus terreus [21]): 6 mm; zone of inhibition at 750 µg/mL (Klebsiella pneumoniae [22]): 9 mm; zone of inhibition at 1000 µg/mL (Escherichia coli [23]): 9 mm; zone of inhibition at 500 µg/mL (Aspergillus niger [24]): 8 mm; zone of inhibition at 500 µg/mL (Aspergillus flavus [25]): 10 mm
2 | Cc1ccc(C2=CC(c3c(-c4ccccc4)[nH]c4ccccc34)c3c(nc4oc(=O)c(C#N)c(N)c4c3N)O2)cc1 (stereo not given) | 5 | 2 | 6 | 6 | 3 | 5 | Active | 8 | 5 | 10 | 9 | 8 | 0 | 3 | 8 | 12 | 5 | 0 | 9 | 6 | zone of inhibition at 500 µg/mL (Aspergillus terreus [21]): 10 mm; zone of inhibition at 750 µg/mL (Klebsiella pneumoniae [22]): 11 mm; zone of inhibition at 1000 µg/mL (Escherichia coli [23]): 8 mm; zone of inhibition at 500 µg/mL (Aspergillus niger [24]): 2 mm; zone of inhibition at 500 µg/mL (Aspergillus flavus [25]): 0 mm
3 | Cc1ccc2[nH]c(-c3ccccc3)c(C3C=C(c4ccc(Cl)cc4)Oc4nc5oc(=O)c(C#N)c(N)c5c(N)c43)c2c1 (stereo not given) | 13 | 10 | 3 | 3 | 14 | 9 | Active | 13 | 10 | 9 | 10 | 13 | 5 | 8 | 10 | 11 | 10 | 5 | 13 | 4 | zone of inhibition at 500 µg/mL (Aspergillus terreus [21]): 10 mm; zone of inhibition at 750 µg/mL (Klebsiella pneumoniae [22]): 11 mm; zone of inhibition at 1000 µg/mL (Escherichia coli [23]): 13 mm; zone of inhibition at 500 µg/mL (Aspergillus niger [24]): 10 mm; zone of inhibition at 500 µg/mL (Aspergillus flavus [25]): 5 mm
4 | N#CC1=C(N)OC(c2ccccc2)=CC1c1c(-c2ccccc2)[nH]c2ccc(Cl)cc12 (stereo not given) | 9 | 9 | 3 | 3 | 9 | 8 | Active | 10 | 12 | 10 | 13 | 10 | 3 | 8 | 10 | 10 | 12 | 3 | 10 | 8 | zone of inhibition at 500 µg/mL (Aspergillus terreus [21]): 9 mm; zone of inhibition at 750 µg/mL (Klebsiella pneumoniae [22]): 10 mm; zone of inhibition at 1000 µg/mL (Escherichia coli [23]): 10 mm; zone of inhibition at 500 µg/mL (Aspergillus niger [24]): 8 mm; zone of inhibition at 500 µg/mL (Aspergillus flavus [25]): 3 mm
5 | Cc1ccc(C2=CC(c3c(-c4ccccc4)[nH]c4ccccc34)c3c(nc[nH]c3=O)O2)cc1 (stereo not given) | 2 | 8 | 3 | 3 | 2 | 8 | Active | 3 | 4 | 6 | 3 | 2 | 3 | 8 | 11 | 6 | 3 | 5 | 3 | 3 | zone of inhibition at 500 µg/mL (Aspergillus terreus [21]): 8 mm; zone of inhibition at 750 µg/mL (Klebsiella pneumoniae [22]): 6 mm; zone of inhibition at 1000 µg/mL (Escherichia coli [23]): 3 mm; zone of inhibition at 500 µg/mL (Aspergillus niger [24]): 8 mm; zone of inhibition at 500 µg/mL (Aspergillus flavus [25]): 3 mm
6 | Cc1ccc2[nH]c(-c3ccccc3)c(C3C=C(c4ccccc4)OC(N)=C3C#N)c2c1 (stereo not given) | 5 | 10 | 3 | 4 | 5 | 5 | Active | 6 | 6 | 4 | 5 | 5 | 2 | 5 | 10 | 4 | 5 | 4 | 6 | 8 | zone of inhibition at 500 µg/mL (Aspergillus terreus [21]): 6 mm; zone of inhibition at 750 µg/mL (Klebsiella pneumoniae [22]): 4 mm; zone of inhibition at 1000 µg/mL (Escherichia coli [23]): 5 mm; zone of inhibition at 500 µg/mL (Aspergillus niger [24]): 9 mm; zone of inhibition at 500 µg/mL (Aspergillus flavus [25]): 2 mm
7 | Nc1n[nH]c2c1C(c1c(-c3ccccc3)[nH]c3ccc(Cl)cc13)C=C(c1ccccc1)O2 (stereo not given) | 8 | 5 | 12 | 12 | 8 | 3 | Active | 7 | 12 | 5 | 13 | 10 | 12 | 3 | 5 | 6 | 12 | 9 | 7 | 12 | zone of inhibition at 500 µg/mL (Aspergillus terreus [21]): 2 mm; zone of inhibition at 750 µg/mL (Klebsiella pneumoniae [22]): 5 mm; zone of inhibition at 1000 µg/mL (Escherichia coli [23]): 9 mm; zone of inhibition at 500 µg/mL (Aspergillus niger [24]): 6 mm; zone of inhibition at 500 µg/mL (Aspergillus flavus [25]): 12 mm
